Measured values from patent US10689367B2, “Triazole pyridyl compounds as agonists of the APJ receptor” (AMGEN INC., priority 2016, dated 2020).

Target: human APJ receptor (Homo sapiens (Human), UniProt P35414)
Assay: [35S]GTPγS binding assay on membranes from CHO cells stably expressing human APJ receptor
Type: biochemical
Details: membranes of CHO cells stably expressing human APJ receptor, read-out: Activity hAPJ SPA EC50 IP
Outline: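 [35S]GTPγS binding measured on membranes from CHO cells stably expressing FLAG-tagged human APJ, with GDP, MgCl2 and NaCl levels optimized beforehand. Incubation 90 min at RT, imager read-out; EC50 from non-linear regression, averaged over several independent experiments.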

Chain of human APJ receptor (P35414 whole entry): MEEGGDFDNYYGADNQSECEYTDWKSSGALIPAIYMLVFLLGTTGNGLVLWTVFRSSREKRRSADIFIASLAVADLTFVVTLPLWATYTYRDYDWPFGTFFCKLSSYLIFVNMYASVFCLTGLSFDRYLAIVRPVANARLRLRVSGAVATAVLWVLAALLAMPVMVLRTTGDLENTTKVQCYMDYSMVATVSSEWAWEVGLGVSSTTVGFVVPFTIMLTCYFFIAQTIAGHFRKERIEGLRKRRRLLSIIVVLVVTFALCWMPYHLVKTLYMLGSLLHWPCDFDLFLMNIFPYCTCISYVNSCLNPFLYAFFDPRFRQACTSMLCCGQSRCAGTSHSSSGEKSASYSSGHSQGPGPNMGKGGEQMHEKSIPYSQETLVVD

First: COC[C@@H](C)n1c(NS(=O)(=O)[C@@H](C)[C@H](OC)c2ncc(Cl)cn2)nnc1-c1cccnc1 [Example 125.0]
Second: CC(C)O[C@@H](c1ncc(Cl)cn1)[C@H](C)S(=O)(=O)Nc1nnc(-c2ccccn2)n1C1CC1 [Example 127.0]
The EC50 of the first is 1.9-fold higher: 90 nM for the first, 48 nM for the second.

First: CO[C@H](c1ncc(Cl)cn1)[C@H](C)S(=O)(=O)Nc1nnc(-c2cccnc2)n1C(C)C [Example 134.0, (1R,2S)-1-(5-chloro-2-pyrimidinyl)-1-methoxy-N-(4-(2-propanyl)-5-(3-pyridinyl)-4H-1,2,4-triazol-3-yl)-2-propanesulfonamide]
Second: COc1cccc(-c2nnc(NS(=O)(=O)[C@@H](C)[C@H](OC)c3ncc(Cl)cn3)n2CCC(N)=O)n1 [Example 45.0]
The EC50 of the first is 2.8-fold higher: 170 nM for the first, 60 nM for the second.

`COC[C@H](C)n1c(NS(=O)(=O)[C@@H](C)[C@H](C)c2ncc(Cl)cn2)nnc1-c1cncc(C)c1` [Example 176.0, (2S,3R)-3-(5-chloro-2-pyrimidinyl)-N-(4-((2S)-1-methoxy-2-propanyl)-5-(5-methyl-3-pyridinyl)-4H-1,2,4-triazol-3-yl)-2-butanesulfonamide] and `CO[C@H](c1ncc(Cl)cn1)[C@H](C)S(=O)(=O)Nc1nnc(-c2cncc(C)c2)n1C1CC12CC2` (mixture of isomers) [Example 150.0, (1R,2S)-1-(5-Chloropyrimidin-2-yl)-1-methoxy-N-(5-(5-methylpyridin-3-yl)-4-((R)-spiro[2.2]pentan-1-yl)-4H-1,2,4-triazol-3-yl)propane-2-sulfonamide and (1R,2S)-1-(5-chloropyrimidin-2-yl)-1-methoxy-N-(5-(5-methylpyridin-3-yl)-4-((S)-spiro[2.2]pentan-1-yl)-4H-1,2,4-triazol-3-yl)propane-2-sulfonamide] are within 1.5-fold of each other in EC50: 110 nM for the first, 100 nM for the second.

`COc1cccc(-c2nnc(NS(=O)(=O)[C@@H](C)[C@H](OC)c3ncc(Cl)cn3)n2C[C@@H]2CCC[C@H](C)O2)n1` (single isomer, unassigned) [Example 307.0] and `COc1cccc(-c2nnc(NS(=O)(=O)[C@@H](C)[C@@H](OC(C)C)c3ncc(C)cn3)n2[C@@H](C)c2noc(C)n2)n1` (single isomer, unassigned) [Example 259.0, (1S,2S)-N-(5-(6-methoxy-2-pyridinyl)-4-((1R)-1-(5-methyl-1,2,4-oxadiazol-3-yl)ethyl)-4H-1,2,4-triazol-3-yl)-1-(5-methyl-2-pyrimidinyl)-1-(2-propanyloxy)-2-propanesulfonamide or (1S,2S)-N-(5-(6-methoxy-2-pyridinyl)-4-((1S)-1-(5-methyl-1,2,4-oxadiazol-3-yl)ethyl)-4H-1,2,4-triazol-3-yl)-1-(5-methyl-2-pyrimidinyl)-1-(2-propanyloxy)-2-propanesulfonamide] are within 1.5-fold of each other in EC50: 8.8 nM for the first, 8.7 nM for the second.

First: COCCn1c(NS(=O)(=O)[C@@H](C)[C@@H](OC(C)C)c2ncc(Cl)cn2)nnc1-c1ccccn1 [Example 23.0, (1S,2S)-1-(5-chloro-2-pyrimidinyl)-N-(4-(2-methoxyethyl)-5-(2-pyridinyl)-4H-1,2,4-triazol-3-yl)-1-(2-propanyloxy)-2-propanesulfonamide]
Second: COCC(COC)n1c(NS(=O)(=O)[C@@H](C)[C@H](OC)c2ncc(C)cn2)nnc1-c1cccc(OC)n1 [Example 100.0]
The EC50 of the first is 2.3-fold higher: 15 nM for the first, 6.4 nM for the second.

Compared with `COc1cccc(-c2nnc(NS(=O)(=O)[C@@H](C)[C@@H](OC(C)C)c3ncc(C)cn3)n2Cc2ccon2)n1` [Example 261.0, (1S,2S)-1-isopropoxy-N-(4-(isoxazol-3-ylmethyl)-5-(6-methoxypyridin-2-yl)-4H-1,2,4-triazol-3-yl)-1-(5-methylpyrimidin-2-yl)propane-2-sulfonamide], “(1R,2S)-1-(5-chloropyrimidin-2-yl)-1-methoxy-N-(5-(6-methoxypyridin-2-yl)-4-(((S)-oxetan-2-yl)methyl)-4H-1,2,4-triazol-3-yl)propane-2-sulfonamide or (1R,2S)-1-(5-chloropyrimidin-2-yl)-1-methoxy-N-(5-(6-methoxypyridin-2-yl)-4-(((R)-oxetan-2-yl)methyl)-4H-1,2,4-triazol-3-yl)propane-2-sulfonamide [Example 141.0]” is 3.1-fold higher in EC50: 5.2 nM for the first, 16 nM for the second. The first is the more potent here.

Going from `COc1cccc(-c2nnc(NS(=O)(=O)[C@@H](C)[C@H](OC)c3ncc(Cl)cn3)n2CC2CCC2)n1` [Example 73.0] to `COc1cccc(-c2nnc(NS(=O)(=O)[C@@H](C)[C@@H](OC(C)C)c3ncc(C)cn3)n2[C@H](C)[C@@H]2CCCCO2)n1` (single isomer, unassigned) [Example 323.0], the EC50 falls from 3 nM to 0.66 nM (4.5-fold). The second is the more potent here.

First: COc1cccc(-c2nnc(NS(=O)(=O)[C@@H](C)[C@H](OC)c3ncc(Cl)cn3)n2[C@@H]2CCC23CCC3)n1 (stereo in doubt) [Example 56.0]
Second: CCc1cc(Cn2c(NS(=O)(=O)[C@@H](C)[C@H](C)c3ncc(Cl)cn3)nnc2-c2cccc(OC)n2)on1 [Example 196.0, (2S,3R)-3-(5-chloropyrimidin-2-yl)-N-(4-((3-ethylisoxazol-5-yl)methyl)-5-(6-methoxypyridin-2-yl)-4H-1,2,4-triazol-3-yl)butane-2-sulfonamide]
The EC50 of the first is 2.5-fold lower: 1.9 nM for the first, 4.8 nM for the second.

Compared with `COc1cccc(-c2nnc(NS(=O)(=O)[C@@H](C)[C@H](OC)c3cnc(C)cn3)n2Cc2cc(C)no2)n1` [Example 191.0, (1R,2S)-1-methoxy-N-(5-(6-methoxypyridin-2-yl)-4-((3-methylisoxazol-5-yl)methyl)-4H-1,2,4-triazol-3-yl)-1-(5-methylpyrazin-2-yl)propane-2-sulfonamide], `COCCn1c(NS(=O)(=O)[C@@H](C)[C@H](C)c2ncc(OC)cn2)nnc1-c1cccc(OC)n1` [Example 20.0, (2S,3R)-N-(4-(2-methoxyethyl)-5-(6-methoxy-2-pyridinyl)-4H-1,2,4-triazol-3-yl)-3-(5-methoxy-2-pyrimidinyl)-2-butanesulfonamide] is 3.5-fold lower in EC50: 390 nM for the first, 110 nM for the second.

Compared with `COc1cccc(-c2nnc(NS(=O)(=O)[C@@H](C)[C@@H](OC(C)C)c3ncc(C)cn3)n2[C@H](c2conc2C)C2CC2)n1` (single isomer, unassigned) [Example 230.0, (1S,2S)-N-(4-((S)-cyclopropyl(3-methyl-1,2-oxazol-4-yl)methyl)-5-(6-methoxy-2-pyridinyl)-4H-1,2,4-triazol-3-yl)-1-(5-methyl-2-pyrimidinyl)-1-(2-propanyloxy)-2-propanesulfonamide or (1S,2S)-N-(4-((R)-cyclopropyl(3-methyl-1,2-oxazol-4-yl)methyl)-5-(6-methoxy-2-pyridinyl)-4H-1,2,4-triazol-3-yl)-1-(5-methyl-2-pyrimidinyl)-1-(2-propanyloxy)-2-propanesulfonamide], `COc1cccc(-c2nnc(NS(=O)(=O)[C@@H](C)[C@H](C)c3ncc(Cl)cn3)n2Cc2cc(C)no2)n1` [Example 190.0, (2S,3R)-3-(5-chloropyrimidin-2-yl)-N-(5-(6-methoxypyridin-2-yl)-4((3-methylisoxazol-5-yl)methyl)-4H-1,2,4-triazol-3-yl)butane-2-sulfonamide] is 52-fold higher in EC50: 0.5 nM for the first, 26 nM for the second. The first is the more potent here.

First: Cc1cnc([C@H](OC(C)C)[C@H](C)S(=O)(=O)Nc2nnc(-c3cncc(C)c3)n2C2(C)CC2)nc1 [Example 58.0]
Second: COc1cccc(-c2nnc(NS(=O)(=O)[C@@H](C)[C@H](C)c3ncc(Cl)cn3)n2[C@@H](C)c2ccno2)n1 (single isomer, unassigned) [Example 215.0, (2S,3R)-3-(5-chloro-2-pyrimidinyl)-N-(5-(6-methoxy-2-pyridinyl)-4-((1R)-1-(1,2-oxazol-5-yl)ethyl)-4H-1,2,4-triazol-3-yl)-2-butanesulfonamide or (2S,3R)-3-(5-chloro-2-pyrimidinyl)-N-(5-(6-methoxy-2-pyridinyl)-4-((1S)-1-(1,2-oxazol-5-yl)ethyl)-4H-1,2,4-triazol-3-yl)-2-butanesulfonamide]
The EC50 of the first is 21-fold higher: 42 nM for the first, 2 nM for the second.

First: COc1cccc(-c2nnc(NS(=O)(=O)[C@@H](C)[C@@H](OC(C)C)c3ncc(C)cn3)n2C[C@H]2CCCO2)n1 (racemic) [Example 278.0, (1S,2S)-1-isopropoxy-N-(5-(6-methoxypyridin-2-yl)-4-(((R)-tetrahydrofuran-2-yl)methyl)-4H-1,2,4-triazol-3-yl)-1-(5-methylpyrimidin-2-yl)propane-2-sulfonamide or (1S,2S)-1-isopropoxy-N-(5-(6-methoxypyridin-2-yl)-4-(((S)-tetrahydrofuran-2-yl)methyl)-4H-1,2,4-triazol-3-yl)-1-(5-methylpyrimidin-2-yl)propane-2-sulfonamide]
Second: COc1cccc(-c2nnc(NS(=O)(=O)[C@@H](C)[C@H](OC)c3cnc(C)cn3)n2C2CC2)n1 [Example 122.0]
The EC50 of the first is 3.5-fold lower: 16 nM for the first, 56 nM for the second. The first is the more potent here.

Compared with `CC[C@H]([C@@H]1CCCCO1)n1c(NS(=O)(=O)[C@@H](C)[C@H](OC)c2ncc(Cl)cn2)nnc1-c1cccc(OC)n1` (single isomer, unassigned) [Example 325.0], `COC[C@@H](C)n1c(NS(=O)(=O)[C@@H](C)[C@H](C)c2ncc(Cl)cn2)nnc1-c1cccnc1` (single isomer, unassigned) [Example 52.0] is 48-fold higher in EC50: 0.33 nM for the first, 16 nM for the second.

Compared with `COc1cccc(-c2nnc(NS(=O)(=O)[C@@H](C)[C@H](OC)c3ncc(Cl)cn3)n2CC(OC)OC)n1` [Example 77.0], `COc1cccc(-c2nnc(NS(=O)(=O)[C@@H](C)[C@@H](OC(C)C)c3ncc(C)cn3)n2[C@H](C)[C@@H]2CCCCO2)n1` (single isomer, unassigned) [Example 324.0] is 390-fold lower in EC50: 135 nM for the first, 0.35 nM for the second.

First: COc1cnc([C@@H](OC)[C@H](C)S(=O)(=O)Nc2nnc(-c3cccc(OC)n3)n2C2CC2)cn1 [Example 121.0]
Second: COc1cccc(-c2nnc(NS(=O)(=O)[C@@H](C)[C@H](C)c3ncc(Cl)cn3)n2C[C@H]2CCCO2)n1 (racemic) [Example 281.0, (2S,3R)-3-(5-chloropyrimidin-2-yl)-N-(5-(6-methoxypyridin-2-yl)-4-(((R)-tetrahydrofuran-2-yl)methyl)-4H-1,2,4-triazol-3-yl)butane-2-sulfonamide or (2S,3R)-3-(5-chloropyrimidin-2-yl)-N-(5-(6-methoxypyridin-2-yl)-4-(((S)-tetrahydrofuran-2-yl)methyl)-4H-1,2,4-triazol-3-yl)butane-2-sulfonamide]
The EC50 of the first is 5.2-fold lower: 21 nM for the first, 110 nM for the second. The first is the more potent here.
